After the bases stand the sugars from the 5' end (letter, count) and the backbone: PS all phosphorothioate, else s phosphorothioate and o phosphodiester by linkage. Methylation of C is not given here. e = 2'-O-(2-methoxyethyl) (MOE); k = constrained ethyl (cEt); d = 2'-deoxy (DNA); m = 2'-O-methyl

This data set addresses HSD17B13. The settings on record: ASO, HepaRG.

For AGACAGACCAAGTAGC (sugars k3 d10 k3, PS), under “1 µM”, the target mRNA inhibition came to 21%.

On to AGACAGGTAATTAATC (sugars k3 d10 k3, PS), for which the target mRNA inhibition (1 µM) was found to be 29%.

Where the note is “1 µM”, AGACTTCTTACGACTT (sugars k3 d10 k3, PS) had a target mRNA inhibition of 41%.

For AGAGCGATAGATCTCT (sugars k3 d10 k3, PS), the target mRNA inhibition (1 µM) worked out at 8%.

“AGAGGATAGTCCATGC (sugars k3 d1 m1 d8 k3, PS)” showed a target mRNA inhibition (1 µM) of 53%.

“AGAGGATAGTCCATGC (sugars k3 d9 k3 e1, PS)”: the target mRNA inhibition came out at 0% (0.02 µM); 3% (0.078 µM); 40% (0.313 µM); 78% (1 µM); 50% (1.25 µM); 44% (5 µM).

The sequence AGAGGATAGTGAACAT (sugars k3 d10 k3, PS) yielded a target mRNA inhibition (1 µM) of 59%.

The sequence “AGAGGCTAGGGAAATC (sugars k3 d1 m1 d8 k3, PS)” came in with a target mRNA inhibition (1 µM) of 48%.

For “AGAGTCGGTCACCTTT (sugars kkdddddddddkekek, PS)”, for the setting “1 µM”, the target mRNA inhibition stood at 61%.

With AGAGTTGCACCGTTTT (sugars k3 d10 k3, PS), the target mRNA inhibition is, setting by setting: (0.02 µM) 5%; (0.078 µM) 11%; (0.313 µM) 40%; (1 µM) 76%; (1.25 µM) 81%; (5 µM) 87%.

Turning to AGATAAAGCTGCCTGC (sugars k3 d10 k3, PS), the target mRNA inhibition (1 µM) was determined as 48%.

The sequence “AGCAGAATTGTGAACG (sugars kkdddddddddkekek, PS)” showed a target mRNA inhibition (1 µM) of 31%.

In the case of AGCATTCATCAGATGT (sugars k3 d10 k3, PS), the target mRNA inhibition was found to be 0% (0.02 µM); 12% (0.078 µM); 40% (0.313 µM); 83% (1 µM); 65% (1.25 µM); 56% (5 µM).

For AGCATTCCATGATTAA (sugars k3 d10 k3, PS), the target mRNA inhibition (1 µM) was determined as 47%.

For the setting “1 µM”, AGCATTGATTCGAAAC (sugars k3 d10 k3, PS) gave a target mRNA inhibition of 70%.

On to “AGCCAGTACAGTTCCT (sugars k3 d9 k3 e1, PS)”, for which the target mRNA inhibition (1 µM) is 59%.

AGCTAACTCAGGCTGT (sugars k3 d10 k3, PS): the target mRNA inhibition (1 µM) was found to be 14%.

Take AGCTCCAGTAATGAGA (sugars k3 d10 k3, PS): where the note is “1 µM”, the target mRNA inhibition stood at 26%.

Consider AGCTTATCGAGTTTAG (sugars k3 d10 k3, PS), for which the target mRNA inhibition (1 µM) came to 54%.

In the case of AGCTTTGCAGCATTGA (sugars k3 d10 k3, PS), under “1 µM”, the target mRNA inhibition stood at 62%.

Under “1 µM”, “AGCTTTTGTCCACCTT (sugars kkdddddddddkekek, PS)” registered a target mRNA inhibition of 62%.

The sequence “AGCTUTTGTCCACCTT (sugars k3 d1 m1 d8 k3, PS)” came in with a target mRNA inhibition (1 µM) of 72%.

Sequence AGGAAATATAGAGGGT (sugars k3 d10 k3, PS) registered a target mRNA inhibition (1 µM) of 54%.

As for AGGATACCTGAAAAGC (sugars k3 d10 k3, PS), the target mRNA inhibition by setting is: (0.02 µM) 13%; (0.078 µM) 23%; (0.313 µM) 54%; (1 µM) 81%; (1.25 µM) 70%; (5 µM) 88%.

“AGGATAGTCCATGCAA (sugars k3 d9 k3 e1, PS)” had a target mRNA inhibition (1 µM) of 61%.

With AGGATAGTCCATGCAA (sugars k3 d10 k3, PS), the target mRNA inhibition (1 µM) is 64%.

As for AGGATTAATCATGGGA (sugars k3 d10 k3, PS), the target mRNA inhibition (1 µM) was determined as 37%.

For the sequence AGGATTAATTCCCTTC (sugars k3 d10 k3, PS), the target mRNA inhibition (1 µM) came to 19%.

Where the note is “1 µM”, AGGCAAAGATCTGGCC (sugars k3 d10 k3, PS) registered a target mRNA inhibition of 7%.

AGGCATTAGATGGTAA (sugars k3 d10 k3, PS) came in with a target mRNA inhibition (1 µM) of 51%.

As for “AGGCTAGGGAAATCTT (sugars kkdddddddddkekek, PS)”, the target mRNA inhibition (1 µM) is 45%.

Where the note is “1 µM”, “AGGCTGTAAGAGTCAG (sugars kkdddddddddkekek, PS)” gave a target mRNA inhibition of 38%.

In turn, AGGTAAACTAAAGTAC (sugars k3 d10 k3, PS) showed a target mRNA inhibition (1 µM) of 6%.

On to AGGTATGTCATACTTC (sugars k3 d10 k3, PS), for which the target mRNA inhibition (1 µM) was found to be 5%.

For the setting “1 µM”, “AGGTUGAGATAAAGCT (sugars k3 d1 m1 d8 k3, PS)” gave a target mRNA inhibition of 58%.

In turn, AGTAAATTGAATAGCC (sugars k3 d10 k3, PS) displayed a target mRNA inhibition (1 µM) of 39%.

AGTAATGAGAACAATC (sugars k3 d10 k3, PS) registered a target mRNA inhibition (1 µM) of 45%.

For the sequence AGTAATTGCATCTGCT (sugars k3 d10 k3, PS), the target mRNA inhibition (1 µM) came to 42%.

Take “AGTACAGTTCCTTTTC (sugars k3 d9 k3 e1, PS)”: the target mRNA inhibition (1 µM) came out at 59%.

With AGTACAGTTCCTTTTC (sugars k3 d10 k3, PS), the target mRNA inhibition (1 µM) came to 69%.

For the setting “1 µM”, AGTAGAGAGCATAAGT (sugars k3 d10 k3, PS) returned a target mRNA inhibition of 52%.

For the sequence AGTAGGAGTAGATGAT (sugars k3 d10 k3, PS), the target mRNA inhibition (1 µM) stood at 0%.

For the setting “1 µM”, AGTAGTAATTCTAAAC (sugars k3 d10 k3, PS) had a target mRNA inhibition of 23%.

On to AGTATGTGAACTCCGT (sugars k3 d10 k3, PS), for which the target mRNA inhibition came out at 0% (0.02 µM); 5% (0.078 µM); 30% (0.313 µM); 81% (1 µM); 67% (1.25 µM); 86% (5 µM).

As for “AGTCCATGCAAAAGCA (sugars k3 d9 k3 e1, PS)”, the target mRNA inhibition was found to be 1% (0.02 µM); 15% (0.078 µM); 43% (0.313 µM); 80% (1 µM); 74% (1.25 µM); 85% (5 µM).

In the case of AGTCCATGCAAAAGCA (sugars k3 d10 k3, PS), the target mRNA inhibition amounted to 1% (0.02 µM); 14% (0.078 µM); 38% (0.313 µM); 77% (1 µM); 55% (1.25 µM); 78% (5 µM).

Take “AGTCCATGCAAAAGCA (sugars kkdddddddddkekek, PS)”: under “1 µM”, the target mRNA inhibition turned out to be 52%.

With AGTGAACATACATTGT (sugars k3 d10 k3, PS), the target mRNA inhibition (1 µM) was 48%.

Where the note is “1 µM”, “AGTGCATCTTAAGATA (sugars k3 d9 k3 e1, PS)” displayed a target mRNA inhibition of 12%.

“AGTGCCAAACCAATGT (sugars k3 d1 m1 d8 k3, PS)”: the target mRNA inhibition (1 µM) came to 24%.

AGTGCCAAACCAATGT (sugars k3 d10 k3, PS) gave a target mRNA inhibition (1 µM) of 62%.

Consider “AGTTAGTATAGTTATC (sugars kkdddddddddkekek, PS)”, for which, where the note is “1 µM”, the target mRNA inhibition came to 47%.

For AGTTATTAGAAGTCAG (sugars k3 d10 k3, PS), the target mRNA inhibition (1 µM) amounted to 54%.

For the setting “1 µM”, “AGTTATTAGAAGTCAG (sugars kkdddddddddkekek, PS)” yielded a target mRNA inhibition of 42%.

Take AGTTTAGAAGTCAAAC (sugars k3 d10 k3, PS): the target mRNA inhibition (1 µM) came out at 23%.

AGTTTATATGGATTTG (sugars k3 d10 k3, PS) yielded a target mRNA inhibition (1 µM) of 67%.

Sequence ATAACCTAATAACTAC (sugars k3 d10 k3, PS) displayed a target mRNA inhibition (1 µM) of 26%.

ATAACTGAGCTAGACA (sugars k3 d10 k3, PS) showed a target mRNA inhibition (1 µM) of 71%.

Under “1 µM”, ATAATAATAGCTCTAT (sugars k3 d10 k3, PS) showed a target mRNA inhibition of 1%.

In turn, ATAATGGGCAGAGCTG (sugars k3 d10 k3, PS) gave a target mRNA inhibition (1 µM) of 53%.

For the sequence ATACAGGCCATAATCT (sugars k3 d10 k3, PS), the target mRNA inhibition (1 µM) was 0%.

For the sequence ATACGACTTCCTTCTA (sugars k3 d10 k3, PS), for the setting “1 µM”, the target mRNA inhibition turned out to be 44%.

As for ATACTAATGTCCAAGG (sugars k3 d10 k3, PS), the target mRNA inhibition (0.02 µM) worked out at 12%; the target mRNA inhibition (0.078 µM) was 43%; the target mRNA inhibition (0.313 µM) is 94%; the target mRNA inhibition (1 µM) is 89%; the target mRNA inhibition (1.25 µM) turned out to be 84%.

Take ATACTTTTCCGTCTCA (sugars k3 d10 k3, PS): the target mRNA inhibition came out at 10% (0.02 µM); 41% (0.078 µM); 71% (0.313 µM); 90% (1 µM); 90% (1.25 µM).

ATAGAGGGTCCACTTT (sugars k3 d10 k3, PS): the target mRNA inhibition (1 µM) amounted to 21%.

In turn, ATAGAGTCGGTCACCT (sugars k3 d10 k3, PS) gave a target mRNA inhibition (1 µM) of 60%.

“ATAGCAAGCCAACAGA (sugars k3 d1 m1 d8 k3, PS)” gave a target mRNA inhibition (1 µM) of 1%.

As for “ATAGCAAGCCAACAGA (sugars k3 d9 k3 e1, PS)”, the target mRNA inhibition (1 µM) is 30%.

“ATAGTCCATGCAAAAG (sugars k3 d9 k3 e1, PS)” came in with a target mRNA inhibition (1 µM) of 29%.

In the case of ATAGTTCAAATTGGAT (sugars k3 d10 k3, PS), the target mRNA inhibition (1 µM) is 48%.

Where the note is “1 µM”, “ATAGUCCATGCAAAAG (sugars k3 d1 m1 d8 k3, PS)” came in with a target mRNA inhibition of 57%.

ATATACGATGGAACAA (sugars k3 d10 k3, PS) gave a target mRNA inhibition (1 µM) of 0%.

Turning to ATATAGAGGGTCCACT (sugars k3 d10 k3, PS), the target mRNA inhibition (1 µM) came to 18%.

Consider ATATATCCTTCCTTGG (sugars k3 d10 k3, PS), for which, for the setting “1 µM”, the target mRNA inhibition is 20%.

For “ATATGTCCAGGTTGAG (sugars k3 d1 m1 d8 k3, PS)”, the target mRNA inhibition (1 µM) was found to be 48%.

For the sequence “ATATGTCCAGGTTGAG (sugars k3 d9 k3 e1, PS)”, the target mRNA inhibition (1 µM) turned out to be 71%.

In turn, “ATATGTCCAGGTTGAG (sugars kkdddddddddkekek, PS)” displayed a target mRNA inhibition (1 µM) of 28%.
